Measured values: article PMC4264242, “Androgen Receptor Antagonists and Anti-Prostate Cancer Activities of Some Newly Synthesized Substituted Fused Pyrazolo-, Triazolo- and Thiazolo-Pyrimidine Derivatives” (International Journal of Molecular Sciences, 2014)

System: castrated immature rats
Test: In vivo anti-androgenic activity in castrated immature rats treated with testosterone propionate
Design: species or system rat
Excerpt: […] male Wistar rats were obtained from the Animal House Colony, Research Institute of Ophthalmology, Giza, Egypt. Prepubertal male rats aged 3 weeks were castrated using the scrotal route under ether anesthesia.

What does the source list for `CC(O)(CS(=O)(=O)c1ccc(F)cc1)C(=O)Nc1ccc(C#N)c(C(F)(F)F)c1` (centres unmarked) [Bicalutamide, reference compound]?
ED50 (Rattus norvegicus, castrated immature rats, TP 0.5 mg/kg s.c., compound p.o., read-out: ED50, in vivo anti-androgen activity): 1.6 mg/kg; % (Inhibition), in vivo anti-androgen activity (inhibition of TP effect (TP 0.5 mg/kg s.c. once daily for 5 days), tested compound 10-30 mg/kg p.o.): 75%
